Patent US20220323471A1 (priority 2019, published 2022)
Entries after “also recorded” stand apart in the source; their conditions may differ. Where two headings read alike, the source gives them in different places.

Columns and labels:
[1] = test system: ZIKV strain MR766; assay: ZIKV strain MR766 infection, 4G2 antibody flow cytometry; details: for IC50: Zika virus
[2] = test system: JEV-RVP; format: cell-based, Japanese encephalitis virus; details: VERO cells; DGP 1 μM; NH4Cl 20 mM
[3] = test system: ZIKV strain MR766; assay: In situ (+)-ZIKV RNA hybridization in VERO cells; format: cell-based, Zika virus; details: MOI 0.5, 1 μM, 48 hours
Description: To determine the ZIKV life cycle stage at which DGP acts, two approaches were used to measure the production of viral RNA: 1) In situ hybridization to image viral RNA by using fluorescent probes, and 2) Reverse transcription PCR (qRT-PCR) to quantify viral RNA. […] At 48 hours post-infection, cells were fixed/permeabilized and ZIKV positive-strand RNA and detected by in situ hybridization using a specific fluorescently labeled negative-strand probe (green) and cell nuclei were stained using 4%6-diamidino-2-phenylindole (DAPI; blue). Twenty-five random images were captured for each treatment (Mock, ZIKV MR766, and ZIKV MR766+DGP 1 μM). To quantify the extent of infection, 400 cells per treatment were randomly counted and the percentage of infected (green) cells were calculated.
ZIKV RNA in cultured adherent cells was probed using the RNAscope reagents and protocol (Advanced Cell Diagnostics) (Wang, F. et al. 2012, “RNAscope: a novel in situ RNA analysis platform for formalin-fixed, paraffin-embedded tissues.” J Mol Diagn 14(1): 22-29) with some modifications as previously described (Puray-Chavez, M. 2017, “Multiplex single-cell visualization of nucleic acids and protein during HIV infection.” Nat Commun 8(1): 1882. Fixed cells on coverslips were washed twice with PBS, then incubated with 0.1% Tween-20 in PBS (PBS-T) for 10 min at room temperature (RT) and washed in PBS for 1 min. […]

[4] = test system: ZIKV; assay: ZIKV viral load in brain and spleen of challenged mice (qRT-PCR); format: in vivo, mouse; details: 1 mg/kg; six days post-challenge
Description: The effect of DGP on viral replication in the brain and spleen was investigated in ZIKV-challenged mice (FIG. 13). To this end, viral loads were determined by qRT-PCR using specific primers against the ZIKV genome six days post-challenge.
To detect viral copies of ZIKV and Sendai Virus (SeV) by qRT-PCR, cells were seeded in 24-well plates, with or without DGP treatment, and infected with the virus at the indicated MOI for 48 h. After the incubation period, total RNA from HT1080, VERO, and CHME3 cells was isolated and purified using Trizol (Invitrogen). For detection of ZIKV viral load in brain and spleen, 3 mice were sacrificed at 6 days post-infection and total RNA was extracted from the brain and spleen. For cDNA synthesis, 1 ng of total RNA was reverse transcribed. The reaction mixture included 1 mM of deoxyribonucleotide phosphates (dNTPs), 2 nM of the specific reverse primer of ZIKV or SeV, 1× M-MULV buffer, 10 U M-MuLV RT (BioLabs), and 2 U of RNase Inhibitor. The reaction mixture was incubated for 1 hour at 42° C. followed by 20 min at 65° C. to inactivate the enzyme. For actin detection, Oligo-dT was used to reverse transcribe total RNA.

[5] = test system: DENV1-RVP; format: cell-based, dengue virus; details: VERO cells; DGP 1 μM; NH4Cl 20 mM
[6] = test system: HT1080, CHME3, VERO cells; assay: MTT cell viability assay; format: cell-based, human and monkey; details: human or monkey cells (HT1080, CHME3, VERO); 48 hours
Description: Cell viability was determined by measuring the reduction of the tetrazolium dye MTT [3-(4,5-dimethylthiazol-2-yl)-2,5-diphenyltetrazolium bromide] to its insoluble form formazan. We treated 4×10^3 cells/well in a 96-well plate with serial dilutions of the indicated drugs. Human and monkey cells were incubated with DGP, diphyllin, or 6-deoxy-D-glucose for 48 hours at 37° C. After the incubation period, 10 μl MTT solution (5 mg/mL) was added to each well for an additional 4 hours at 37° C. Finally, the media was removed and dimethyl sulfoxide was added (200 μl/well) according to the manufacturer's instructions. The optical density was measured at 570 nm using a microplate reader. Experiments were performed in triplicates and standard deviations are shown. Mock-treated cells represent 100% viability.

[7] = test system: WNV-RVP; format: cell-based, West Nile virus; details: VERO cells; DGP 1 μM; NH4Cl 20 mM
[8] = test system: EBV RVP; format: cell-based, Ebola virus

COc1cc2c(OC3OC(C)C(O)C(O)C3O)c3c(c(-c4ccc5c(c4)OCO5)c2cc1OC)C(=O)OC3 (centres unmarked) [DGP, 6-deoxyglucose-diphyllin]
percentage of 4G2-positive cells ([1]; CHME3 cells, MOI 1, DGP 0.1 and 1 μM, NH4Cl 20 mM, 48 hours): substantial decrease | potency of DGP relative to diphyllin ([1]; HT1080 and CHME3 cells): 3-5 fold | concentration giving substantial inhibition of ZIKV infection ([1]; VERO, HT1080, CHME3 cells, MOI 1, 48 hours): 0.25 to 0.50 µM | IC50 ([1]; HT-1080, read-out: IC50, ZIKV infection): 20 nM | IC50 ([1]; read-out: IC50, ZIKV infection): 40 nM | JEV RVP infection [2]: almost undetectable | % Infected Cells [3]: 3.05% | Infected Cells (Green) ([3]; of 400 cells counted): 12 | viral replication in the brain [4]: completely inhibited | viral replication in the spleen [4]: low levels of viral replication were detected | DENV1 RVP infection [5]: almost undetectable | toxicity at concentrations required to inhibit ZIKV infection (MTT) [6]: non-toxic; also recorded: not toxic | WNV RVP infection [7]: almost undetectable | EBV RVP infection [8]: almost undetectable
